# Values quoted from earlier work in patent US20260014155A1, “TICAGRELOR SOLID DISPERSION, METHOD FOR PREPARING SAME, AND USE THEREOF” (WISDOM PHARMACEUTICAL CO., LTD., priority 2022, published 2026).
# Conditions: low solubility and low permeability
smiles,measurement,value
"CCCSc1nc(N[C@@H]2C[C@H]2c2ccc(F)c(F)c2)c2nnn([C@@H]3C[C@H](OCCO)[C@@H](O)[C@H]3O)c2n1 [ticagrelor, (1S,2S,3R,5S)-3-[7-{[(1R,2S)-2-(3,4-difluorophenyl)cyclopropyl]amino}-5-(propylthio)-3H-[1,2,3]-triazolo[4,5-d]pyrimidin-3-yl]-5-(2-hydroxyethoxy)cyclopentane-1,2-diol]",biopharmaceutical classification,BCS class 4
